Test results as given in US20090221581A1, “Methods of treating pain” (priority 2005, published 2009).

How the values were obtained:
[1] = target: T1, CDK5/p35NCK (Homo sapiens, UniProt Q00535); assay: In vitro kinase inhibition assay, CDK5/p35NCK; format: biochemical
T1 construct: made in house; host or cells: Sf9 insect cells, baculovirus

[2] = target: T2, CDK4/CycD1 (Homo sapiens, UniProt P11802); assay: In vitro kinase inhibition assay, CDK4/CycD1; format: biochemical
T2 construct: host or cells: Sf9 insect cells, baculovirus
T2 sequence (P11802 whole entry): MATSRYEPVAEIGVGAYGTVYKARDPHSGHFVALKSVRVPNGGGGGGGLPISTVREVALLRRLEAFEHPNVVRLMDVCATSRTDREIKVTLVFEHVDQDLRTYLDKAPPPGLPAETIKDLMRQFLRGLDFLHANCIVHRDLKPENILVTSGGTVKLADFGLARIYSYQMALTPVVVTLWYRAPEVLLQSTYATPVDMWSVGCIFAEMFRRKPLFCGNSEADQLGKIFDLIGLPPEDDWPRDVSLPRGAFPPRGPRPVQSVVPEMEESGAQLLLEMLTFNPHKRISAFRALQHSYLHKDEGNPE
T2 sequence (P24385 whole entry partner): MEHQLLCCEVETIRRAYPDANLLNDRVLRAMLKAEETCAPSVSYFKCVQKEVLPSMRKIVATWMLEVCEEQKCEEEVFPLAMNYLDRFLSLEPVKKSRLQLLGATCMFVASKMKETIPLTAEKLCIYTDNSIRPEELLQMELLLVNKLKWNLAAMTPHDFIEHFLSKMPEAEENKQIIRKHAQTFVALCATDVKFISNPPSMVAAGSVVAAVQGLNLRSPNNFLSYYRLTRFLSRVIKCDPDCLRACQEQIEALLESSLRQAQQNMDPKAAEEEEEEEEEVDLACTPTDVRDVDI
Experimental: (§1) In vitro kinase inhibition assays may be performed according to the following protocol:
(§2) Compounds are used as 1×10^−02 M stock solutions in 100% DMSO, 100 μl each in column 2 of three 96-well V-shaped microtiter plates (in the following, said plates are referred to as “master plates”).
(§3) Subsequently, the 1×10^−02 M stock solutions in column 2 of the master plates are subjected to a serial, semi-logarithmic dilution using 100% DMSO as a solvent, resulting in 10 different concentrations, the dilution endpoint being 3×10^−07 M/100% DMSO in column 12. Column 1 and 7 are filled with 100% DMSO as controls. […]
(§4) For the determination of inhibitory profiles, the following protein kinases were used: CDK2/CycA, CDK4/CycD1, CDK6/CycD1 and CDK9/CycT. […] The purity of each kinase is determined by SDS-PAGE/silver staining and the identity of each kinase is verified by western blot analysis with kinase specific antibodies or by mass spectroscopy. […]
(§5) Reaction mixtures are incubated at 30° C. for 80 minutes. […] Incorporation of ^33P is determined with a microplate scintillation counter (Microbeta, Wallac). […]
(§6) The median value of the counts in column 1 (n=8) of each assay plate is defined as “low control”. This value reflects unspecific binding of radioactivity to the plate in the absence of a protein kinase but in the presence of the substrate. […]

[3] = target: T3, CDK2/CycA (Homo sapiens, UniProt P24941); assay: In vitro kinase inhibition assay, CDK2/CycA; format: biochemical
T3 construct: host or cells: Sf9 insect cells, baculovirus
Experimental: as §1, §2, §3, §4, §5, §6

[4] = system: TNFα expression in microglial cell line (EOC20); assay: TNFα expression in microglial cells, Real-Time PCR; format: cell-based, human
Experimental: In order to validate the hypothesis that TNFα stimulation is regulated by an autocrine loop (i.e., TNFα induces expression of TNFα; see FIG. 2), a microglial cell line (EOC20) […] was stimulated in vitro by addition of TNFα (20 ng/ml).
1 hour prior to addition of TNFα, stimulated or unstimulated cells, respectively, were treated with DMSO (vehicle control), or 0.5 μM and 0.05 μM, respectively, of compound A. Cells were harvested 48 h after addition of TNFα. RNA was isolated from the samples and the amount of amplicon of TNFα (and of other cytokines) and of several housekeeping genes was measured by light cycler-based Real-Time PCR.

T1 sequence (Q00535 whole entry): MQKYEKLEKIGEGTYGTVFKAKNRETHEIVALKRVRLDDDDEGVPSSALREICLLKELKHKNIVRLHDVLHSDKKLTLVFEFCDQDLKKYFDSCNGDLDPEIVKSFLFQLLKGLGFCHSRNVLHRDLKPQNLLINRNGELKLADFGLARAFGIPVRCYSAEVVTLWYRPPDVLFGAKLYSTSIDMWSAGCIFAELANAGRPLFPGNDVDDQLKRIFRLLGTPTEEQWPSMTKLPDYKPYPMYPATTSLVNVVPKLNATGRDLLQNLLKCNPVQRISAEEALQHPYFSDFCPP
T1 sequence (Q15078 whole entry partner): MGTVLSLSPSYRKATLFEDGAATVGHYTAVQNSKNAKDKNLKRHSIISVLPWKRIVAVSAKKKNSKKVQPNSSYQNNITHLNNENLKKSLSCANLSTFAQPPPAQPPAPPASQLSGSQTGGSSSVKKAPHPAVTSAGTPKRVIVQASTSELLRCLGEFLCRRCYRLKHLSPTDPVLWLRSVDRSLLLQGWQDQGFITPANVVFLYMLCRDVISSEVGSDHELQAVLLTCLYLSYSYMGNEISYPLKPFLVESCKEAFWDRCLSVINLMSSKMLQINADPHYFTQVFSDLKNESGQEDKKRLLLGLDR

IC50 [1]: 58.1 µM
IC50 [2]: 2.79 µM
IC50 [3]: 10.1 µM
Structure (SMILES): COc1ccccc1-c1cc(Nc2cccc(S(N)(=O)=O)c2)ncn1 [Compound A]
TNFα message in unstimulated cells ([4]; EOC20 cells without TNFα stimulation, 0.5 μM and 0.05 μM compound): reduction of TNFα message
TNFα amplicon in TNFα-stimulated cells ([4]; EOC20 cells, TNFα 20 ng/ml, 0.5 μM and 0.05 μM compound 1 hour prior, harvested 48 h): dose-dependent reduction
